One data set has as its system colorectal cancer. The settings on record: chronic aspirin use; cited from earlier work.
Data set [1] has as its system villous adenomas of the cecum. The settings on record: 30 mg weekly, for up to 20 months; cited from earlier work.
In a further data set the test system is sporadic colonic polyps. The settings on record: cited from earlier work; for regression of adenomatous polyps, small pilot study: sporadic colonic polyps.
The test system of data set [2] is skin graft from donor B6 black mice. Nature of the data set: Skin graft from donor B6 black mice transplanted to recipient BALB/c mice: graft rejection/survival. In kind it is in vivo. As for the experimental part:
(§1) Skin from donor B6 black mice was transplanted to recipient white BALB/c mice. […] To determine the effects of these agents on secondary tumor development, BALB/c mice were also injected subcutaneously with MC-26 colorectal cancer cells and were treated for 22 days with the above regimens. A second control group included mice that were not injected with tumor cells and received no treatment.
(§2) The inventors subcutaneously injected 2×10^4 MC-26 cells (mouse colorectal adenocarcinoma cell line) into the flanks of 6-8 week old BALB/c mice. Tumor volume was measured at regular intervals during a period of 22 days. […] Skin xenografts from donor black B6 mice were simultaneously transplanted to the backs of the mice.

Data set [3] deals with MC-26 colorectal cancer cells. The experiment in a line: Subcutaneous MC-26 colorectal cancer tumor growth in BALB/c mice. In kind it is in vivo. The protocol:
(§3) A second control group included mice that were not injected with tumor cells and received no treatment.
as §1, §2

Data set [4] can be described thus: Body weight change of MC-26 tumor-bearing BALB/c mice, day 0 to day 22. It counts as in vivo. The settings on record: compared with mice not injected with tumor cells and untreated. As for the experimental part: as §3, §1
The subject of a further data set is flat colorectal mucosa. The settings on record: after treatment with sulindac, FAP subjects; cited from earlier work.
The next data set concerns colonic polyps. The settings on record: daily dose of 300 mg, taken systemically; cited from earlier work.
The conditions of data set [5]: given orally as a tablet; cited from earlier work.
Data set [6] deals with HT-29 colon adenocarcinoma cell line. The settings on record: following sulindac administration; cited from earlier work.

Each structure is given as a SMILES string. Where only a bound is given, the exact number is not on record here.

`CC(=O)Oc1ccccc1C(=O)O` [aspirin]: the “reduction in the incidence of colorectal cancer” value in the data set with colorectal cancer is reported as 50-70%.
On to `CN1C(C(=O)Nc2ccccn2)=C(O)c2ccccc2S1(=O)=O` [piroxicam], for which the “regression of pre-malignant adenomas” value in [1] is “dramatic and sustained regression”. Moreover, the “regression of adenomatous polyps, small pilot study” value in the data set with sporadic colonic polyps was “no similar regression”.
Consider `CS(=O)(=O)c1ccc(C2=C(c3ccccc3)C(=O)OC2)cc1` [rofecoxib], for which, in data set [2] (Example 2, 22 days, cyclosporine 20 mg/kg, rofecoxib chow equivalent to a human dose of 25 mg per day), the “skin graft rejection (FIG. 3)” value is recorded as “rejected the skin graft”. Besides, the “skin graft survival at day 15” value in data set [2] (Example 3, day 15, cyclosporine 20 mg/kg, rofecoxib chow 0.01%, control group 0%) stood at 0%. For the same compound, in [2] (Example 3, rofecoxib chow 0.01%), the “time by which the skin graft had failed” value is at most 11 days. Moreover, in [3] (Example 1, treated for 22 days, rofecoxib chow equivalent to a human dose of 25 mg per day), the “tumor growth / tumor size (FIG. 1)” value is recorded as “significantly smaller”. The “tumor growth / tumor size (FIG. 4)” value in data set [3] (Example 2, treated for 22 days, cyclosporine 20 mg/kg, rofecoxib chow equivalent to a human dose of 25 mg per day) is “significantly smaller”. Besides, the “tumor volume (TV)” value in data set [3] (Example 3, 2×10^4 MC-26 cells s.c. in flank, 22 days, rofecoxib chow 0.01%, cyclosporine 20 mg/kg, skin graft transplanted simultaneously, control chow 920.81±511.10) is on record as 394.75±273.37 mm^3. In data set [3] (Example 3, 22 days), the “tumor volume / tumor growth compared with control chow” value is listed as “markedly reduced”. Moreover, the “growth and body weight gain (FIG. 2)” value in [4] (Example 1, day 0 to day 22) is “continued to grow and gained weight similarly to the control group”. Also, the “growth and body weight gain” value in data set [4] (Example 2, 22 days) is “continued to grow and gained weight similarly to the control group”.
`CC1=C(CC(=O)O)c2cc(F)ccc2/C1=C\c1ccc([S+](C)[O-])cc1` (stereo not drawn) [sulindac]: in the data set with flat colorectal mucosa, the colonic mucosal apoptosis result was “increased levels”. In addition, the “number and size of colonic polyps” value in the data set on colonic polyps is recorded as “significantly decreased”. Moreover, the “time to peak plasma concentration after dosing” value in [5] is given as “about two”. Moreover, the “regression / progression of sporadic colorectal adenomas, multicenter study” value in the data set with sporadic colonic polyps (300 mg daily or 150 mg daily for one year, regardless of dose, nearly 100 subjects) was “induced regressions and prevented the progression”. Also, the “regression of adenomatous polyps, small pilot study” value in the data set on sporadic colonic polyps was “no similar regression”. Further, the “apoptosis in HT-29 cells” value in data set [6] is given as “induction of apoptosis”.
